Here are results for 47 sequences from publication PMC10363480 (Plant Communications, 2023).

In the first assay the test system is mitochondria or chloroplast of Chlamydomonas reinhardtii. Put plainly: Subcellular localization of Venus reporter by epifluorescence microscopy (manual targeting assignment). It counts as cell-based. As to conditions: C-terminal element of RCA1-cTP added to the named peptide; Figure 2 rows E and F; bare name = K and R versions. The text has this:
In a bid to keep peptidase recognition sites intact, C-terminal elements were designed to start 10 residues upstream of the cleavage site, even though this slightly truncates TP helices. Peptides carrying the 15-amino-acid cTP N-terminus (cTP-N) will be denoted ^cP. Similarly, peptides with C-terminal elements from RCA1-cTP (cTP-C) or CAG2-mTP (mTP-C) will be denoted P^c or P^m, respectively. Peptide variants are used to drive the subcellular localization of a Venus fluorescent reporter protein, which was assessed using fluorescence microscopy; in Figure 2, an executive overview of observed Venus localization is presented for all constructs. […] Here, we use automated image segmentation to validate our subcellular localization assessment (Supplemental Figure 2, Supplemental text). […] The reader will be asked to return to Figure 2 throughout, with Figures 3 and 4 providing selected micrographs as examples highlighting particular points of interest.
Chlamydomonas TP sequences were amplified from genomic DNA extracted from strain T222+ (CC-5101). Templates for codon-optimized HA-RAMP, RP, and R→K modified TP sequences were obtained by gene synthesis (Eurofins Genomics). Correct assembly was verified by sequencing (Eurofins Genomics). Linear transformation cassettes were generated through restriction digestion with EcoRV (New England Biolabs).
Constructs were transformed into wild-type strain T222+ (CC-5101) using a protocol described previously ([Onishi and Pringle, 2016]), except using 4 μl of DNA at 2 μg/μl.
Strains with suspected mitochondrial targeting were treated with 0.1 μM MitoTracker Red CMXRos (Thermo Fisher Scientific) in growth medium for 30 min in the dark and washed with TAP prior to taking images.
Legend for Fig. S3 – S20. Three independent transformant lines (Strains 1-3) are shown for each combination of modifications (A-L), represented by a cartoon and a shorthand description (cf. Fig.
2). Where a construct was interpreted as generating reporter localization in mitochondria or […]
Epifluorescence microscopy images of typical cells for each strain are shown. MitoTracker fluorescence, false-coloured in cyan, indicates the position of mitochondria (although parts of the cell exterior are sometimes also stained). False-coloured yellow fluorescence from the Venus channel reports on the subcellular localization of the fluorescent reporter. Chlorophyll autofluorescence, shown in magenta, indicates the location of the chloroplast. Scale bars are 5µm. Brightness (Br.) was adjusted for clarity: fluorescence intensity values were restricted to the range shown for each channel by matching coloured rectangles. Intensity scales to 0 at the bottom of the panel, and to 65535 at the top.
On the right-hand side, quantitative information associated with each construct is shown. Data was normalized such that averages range from 0 to 1 across all constructs (cf. Fig S2). Individual cell measurements may exceed this range; for clarity, the range shown here is limited to -0.5 to 1.5, with outliers that have more extreme values shown as lying beyond a dashed line. Strain 1 is plotted as circles, strain 2 as squares, and strain 3 as diamonds. Venus: Fluorescence plate reader data of transformants screened for this construct (Venus fluorescence, accounting for cell density using linear regression of OD750 and chlorophyll fluorescence trained on ‘no venus’ control transformants). Transformants that were not selected after screening are shown as small grey circles. A colour code ranging from white (low Venus fluorescence) to black (high Venus fluorescence) is used for strains 1-3 and the average thereof. Automated image quantification data: pyr/chl: Venus channel signal in the pyrenoid relative to in the chlorophyll region; mt/cell: Venus channel signal in mitochondria relative to the whole cell. Each point corresponds to a single cell.
The colour code code is the same as that below distributions in Fig. S2, i.e. blue highlights the […]
With “KYYGNGVHCTKSGCSVNWGEAFSAGVHRLANGGNGFW [LCA, leucocin A, HA-RAMP antimicrobial peptide, reference compound]”, the “chloroplast targeting upon addition of cTP-C (P^c)” value was “enabled chloroplast targeting”.

Still in this assay, the particulars now being: C-terminal element of RCA1-cTP added to the named peptide; Figure 2 rows E and F; bare name = K and R versions; listed as LCAK.
Take “KYYGNGVHCTKSGCSVNWGEAFSAGVHRLANGGNGFW [LCA, leucocin A, HA-RAMP antimicrobial peptide, reference compound]”: the “chloroplast targeting upon addition of cTP-C (P^c)” value was “Gain of partial chloroplast targeting”.

Still in this assay, the particulars now being: Figure 2; bare name = K and R versions.
Turning to “GLFSKFNKKKIKSGLIKIIKTAGKEAGLEALRTGIDVIGCKIKGEC [E1S, esculentin-1SEA, HA-RAMP antimicrobial peptide, reference compound]”, the “targeting when combining cTP-N with mTP-C (^cP^m)” value is “chloroplast targeting”. The same measure, in the same setting: the result for “KYYGNGVHCTKSGCSVNWGEAFSAGVHRLANGGNGFW [LCA, leucocin A, HA-RAMP antimicrobial peptide, reference compound]” reads “chloroplast targeting”.

The assay is the same for the next values; noted with them: manual targeting assignment of the Venus reporter construct in Chlamydomonas: Neither / Mitochondria / Chloroplast / Dual, (partial) = partial targeting.
In the case of MQVTMKSSAVSGQKVGGAKVATK [c.CH.K], the Localisation entry is on record as “Neither”. Still for that read-out and setting: the result for “MQVTMKSSAVSGQRVGRIPVRAIRRAGAAIGRGLRAINIASTAHDVYSFFRPRHRRRLTQTAESFRGVSSQFFDAPNGPSVKQVLIEDEW [c.SIM.R.m]” reads “Chloroplast”; that for “MLKRVGQSLVPFARAGLTQTAESFRGVSSQFFDAPNGPSVKQVLIEDEW [MH.R.m]”, “Mitochondria (partial)”; that for “MQVTMKSSAVSGQRVALWRTMLRRLGTMALHAGRAAFGAAADTISQ [c.DDM.R]”, “Mitochondria (partial)”. On the same count and under the same terms, the entry for “MGGAKVATKSVKKAQLQVVASSKKQMGKWKSIDAGVDASDDQ [CH.K.c]” is “Neither”. The same measure, in the same setting: the entry for “MGRIPVRAIRRAGAAIGRGLRAINIASTAHDVYSFFRPRHRRRLTQTAESFRGVSSQFFDAPNGPSVKQVLIEDEW [SIM.R.m]” is “Neither”; for “MQVTMKSSAVSGQRVMLKKVGQSLVPFAKAGSVRRAQLQVVASSRKQMGRWRSIDAGVDASDDQ [c.MH.K.c]” it is “Chloroplast”; for “MGRIPVRAIRRAGAAIGRGLRAINIASTAHDVYSFFRPRHRRR [SIM.R]” it is “Neither”.

“MQVTMKSSAVSGQRVSFLTTFRDLAIRAARSAGQSVLSTLSCRLSNTCSVRRAQLQVVASSRKQMGRWRSIDAGVDASDDQ [c.B2I.R.c]”: the Localisation result is “Chloroplast”. Still for that read-out and setting: the entry for “MGGARVATRLTQTAESFRGVSSQFFDAPNGPSVKQVLIEDEW [CH.R.m]” is “Neither”; for “MQVTMKSSAVSGQRVRYYGNGVSCNRRGCSVDWGRAIGIIGNNAAANLTTGGRAGWRGLTQTAESFRGVSSQFFDAPNGPSVKQVLIEDEW [c.EHF.R.m]” it is “Chloroplast”; for “MQVTMKSSAVSGQRVMLKKVGQSLVPFAKAG [c.MH.K]” it is “Neither”. As to “MGWIRDFGRRIERVGQHTRDATIQTIAVAQQAANVAATLRG [S1D.R]”, the Localisation entry is reported as “Neither”. On the same count and under the same terms, the result for “MQVTMKSSAVSGQRVALWRTMLRRLGTMALHAGRAAFGAAADTISQSVRRAQLQVVASSRKQMGRWRSIDAGVDASDDQ [c.DDM.R.c]” reads “Chloroplast”.

Still in this assay, the particulars now being: peptide-Venus reporter construct expressed in Chlamydomonas reinhardtii; manual targeting assignment (Neither / Mitochondria / Chloroplast / Dual; partial = partial targeting).
In the case of MGIGKFLHSAKKFGKAFVGEIMNS [MII.K], the Localisation result was “Mitochondria (partial)”. As to “MGIGKFLHSAKKFGKAFVGEIMNSLTQTAESFRGVSSQFFDAPNGPSVKQVLIEDEW [MII.K.m]”, the Localisation entry is given as “Mitochondria (partial)”.

As to “MKYYGNGVHCTRSGCSVNWGEAFSAGVHRLANGGNGFW [LCA.R]”, the Localisation result was “Neither”. Still for that read-out and setting: the entry for “MGLFSKFNKKKIKSGLIKIIKTAGKEAGLEALRTGIDVIGCKIKGEC [E1S.K]” is “Neither”. For the sequence “MALWMTLLRRVLRAAARAALNAVLVGANASVRRAQLQVVASSRKQMGRWRSIDAGVDASDDQ [DS4.R.c]”, the Localisation result is on record as “Neither”. In the case of “MGLFSKFNKKKIKSGLIKIIKTAGKEAGLEALRTGIDVIGCKIKGECLTQTAESFRGVSSQFFDAPNGPSVKQVLIEDEW [E1S.K.m]”, the Localisation result is “Neither”. On to “MVNYGNGVSCSKTKCSVNWGIITHQAFRVTSGVASGSVRRAQLQVVASSRKQMGRWRSIDAGVDASDDQ [B15.K.c]”, for which the Localisation entry was “Chloroplast”. On the same count and under the same terms, the result for MALWMTLLRRVLRAAARAALNAVLVGANA [DS4.R] reads “Neither”; that for MWLSRTARRLENSARRRISEGIAIAIRGGSR [CP3.R], “Mitochondria (partial)”; that for “MQVTMKSSAVSGQRVFLPLLAGLAANFLPKIFCKITRKCSVRRAQLQVVASSRKQMGRWRSIDAGVDASDDQ [c.B1E.K.c]”, “Chloroplast”.

Turning to “MQVTMKSSAVSGQRVMVNYGNGVSCSRTRCSVNWGIITHQAFRVTSGVASGLTQTAESFRGVSSQFFDAPNGPSVKQVLIEDEW [c.B15.R.m]”, the Localisation entry was “Chloroplast”. For the sequence “MQVTMKSSAVSGQRVALWMTLLKKVLKAAAKAALNAVLVGANA [c.DS4.K]”, the Localisation entry is reported as “Neither”.

The same assay, now with this note: targeting of the Venus reporter fused to the peptide, expressed in Chlamydomonas reinhardtii; manual assignment from epifluorescence microscopy; full or partial.
As to “MQVTMKSSAVSGQRVMGLLLDTLKGAAKDIAGIALEKLKCKITGCKPLTQTAESFRGVSSQFFDAPNGPSVKQVLIEDEW [c.R2G.K.m]”, the Localisation result is listed as “Mitochondria”. As to “MQVTMKSSAVSGQRVNIVVYWNFTLWHMDINARNAGCDGEGS [c.RP1.K]”, the Localisation entry is “Neither”.

Regarding “MQVTMKSSAVSGQRVMSFLTTFKDLAIKAAKSAGQSVLSTLSCKLSNTC [c.B2I.K]”, the Localisation entry was “Mitochondria (partial)”. As for “MQVTMKSSAVSGQRVMWLSRTARRLENSARRRISEGIAIAIRGGSRLTQTAESFRGVSSQFFDAPNGPSVKQVLIEDEW [c.CP3.R.m]”, the Localisation result was “Neither”. Take “MSFLTTFKDLAIKAAKSAGQSVLSTLSCKLSNTCLTQTAESFRGVSSQFFDAPNGPSVKQVLIEDEW [B2I.K.m]”: the Localisation result is “Mitochondria”.

In the case of “MQVTMKSSAVSGQRVMSFLTTFKDLAIKAAKSAGQSVLSTLSCKLSNTCSVRRAQLQVVASSRKQMGRWRSIDAGVDASDDQ [c.B2I.K.c]”, the Localisation result is “Chloroplast (partial)”. Turning to MQVTMKSSAVSGQRV [c.-], the Localisation entry is on record as “Neither”. Still for that read-out and setting: the result for “MSFLTTFKDLAIKAAKSAGQSVLSTLSCKLSNTC [B2I.K]” reads “Mitochondria”; that for “MGWIRDFGKRIERVGQHTRDATIQTIAVAQQAANVAATLKG [S1D.K]”, “Neither”. Turning to “MKYYGNGVSCNKKGCSVDWGKAIGIIGNNAAANLTTGGKAGWKG [EHF.K]”, the Localisation result is on record as “Neither”.

In the case of “MQVTMKSSAVSGQRVALWMTLLRRVLRAAARAALNAVLVGANALTQTAESFRGVSSQFFDAPNGPSVKQVLIEDEW [c.DS4.R.m]”, the Localisation result is “Neither”. As for “MGKIPVKAIKKAGAAIGKGLRAINIASTAHDVYSFFKPKHKKKLTQTAESFRGVSSQFFDAPNGPSVKQVLIEDEW [SIM.K.m]”, the Localisation result is reported as “Neither”.

For “MQVTMKSSAVSGQRVMKYYGNGVSCNKKGCSVDWGKAIGIIGNNAAANLTTGGKAGWKGLTQTAESFRGVSSQFFDAPNGPSVKQVLIEDEW [c.EHF.K.m]”, the Localisation result was “Chloroplast”.

For “MALWKTMLKKLGTMALHAGKAAFGAAADTISQ [DDM.K]”, the Localisation entry is on record as “Neither”. Same read-out and setting: the entry for “MQVTMKSSAVSGQRVFLPLLAGLAANFLPKIFCKITRKCLTQTAESFRGVSSQFFDAPNGPSVKQVLIEDEW [c.B1E.K.m]” is “Dual”; for “MGLLLDTLKGAAKDIAGIALEKLKCKITGCKP [R2G.K]” it is “Neither”. As for “MQVTMKSSAVSGQRVMGLFSRFNRRRIRSGLIRIIRTAGREAGLEALRTGIDVIGCRIRGEC [c.E1S.R]”, the Localisation result is given as “Chloroplast”. With “MQVTMKSSAVSGQRVMGLLLDTLKGAAKDIAGIALEKLKCKITGCKP [c.R2G.K]”, the Localisation entry was “Mitochondria (partial)”. Same read-out and setting: the entry for “MQVTMKSSAVSGQRVFLPLLAGLAANFLPKIFCKITRKC [c.B1E.K]” is “Mitochondria”.
